Measurements from ChEMBL document CHEMBL3507680, “University of Dundee, Gates Library screen for HepG2 cell viability”.

Test: Human HepG2 cell viability assay in 384 well format
Type: toxicity, cell-based
Set-up: dose 125 nL, time 70.5 hour; concentration not given beside the values
Settings: HepG2 cells, read-out: Inhibition

Structure (SMILES)	cytotoxicity at 70.5 h
Cc1cnn(C2CCCN(C(=O)c3cc(-c4ccco4)[nH]n3)C2)c1 (stereo not drawn)	-11.8%
COc1ccc(S(=O)(=O)Nc2cccnc2-n2cncn2)c(C)c1	-8.45%
CC1CN(C)CCN1C(=O)c1cccn1Cc1cccs1 (stereo not drawn)	-8.42%
CCN(Cc1ccoc1)C(=O)Nc1ccccc1CN1CCOCC1	7.89%
CC(C)(C)CN(CCO)C(=O)Nc1cccc(N2CCNC2=O)c1	-4.71%
CC(C)(C)CN(CCC#N)C(=O)Nc1cccc(N2CCNC2=O)c1	-10.7%
COc1ccc(CCCC(=O)N2CCCC(n3cncn3)C2)cc1 (stereo not drawn)	-2.82%
COc1ccc(C2CCN(CCCC#N)CC2)cc1	27.7%
CNC(=O)c1sc(C(NC(=O)c2ccccc2)C2CC2)nc1C (stereo not drawn)	-4.95%
CCSc1cc(C(=O)NC(C)c2cccc(N3CCOC3=O)c2)ccn1 (stereo not drawn)	16.4%
CC(NC(=O)c1ccc2c(c1)COC2)c1cccc(N2CCOC2=O)c1 (stereo not drawn)	-0.257%
Cc1nc(CN(C)S(=O)(=O)c2ccc(F)cc2Br)no1	14.6%
COC(=O)c1ccc(Cn2cccc(C(F)(F)F)c2=O)s1	-2.65%
CCc1noc(C(C)N2CCN(Cc3noc(C4CC4)n3)CC2)n1 (stereo not drawn)	-8.62%
Cc1noc(C)c1CCCNC(=O)Nc1cccc([S+](C)[O-])c1 (stereo not drawn)	-3.63%
CC(C(=O)Nc1cccc(C(F)(F)F)c1)N(C)CCN1CCOCC1 (stereo not drawn)	-8.82%
Cc1ccc(S(=O)(=O)N(C)CC(C)O)c(F)c1 (stereo not drawn)	21.4%
COC(=O)c1ccc(NC2CCN(CC(F)(F)F)C2=O)cc1C (stereo not drawn)	26.2%
CCc1nc(CN2CCCN(C(=O)c3ccccc3)CC2)cs1	-1.48%
CC(NC(=O)CCNC(=O)c1ccoc1)c1ccccc1 (stereo not drawn)	-7.29%
Cc1nn(-c2ccccc2)c(C)c1CNC(=O)NC1CC1	-3.17%
Cc1nnc(NC(=O)N2CCC(N3CCCCC3)CC2)s1	-8.18%
NC(=O)CSc1ccccc1NCc1nc(C2CC2)no1	15%
COc1ccc(OC)c(-c2csc(-c3cccc(C(=O)O)c3)n2)c1	-16.7%

Structure (SMILES)	cytotoxicity at 70.5 h
COCCNC(=O)NCC(C)c1ccccc1OC (stereo not drawn)	-8.45%
CCc1nc(CN2CCCN(C(=O)c3cccn3C)CC2)cs1	2.1%
O=C(Cn1cncn1)NCC1CCN(Cc2ccccc2Cl)CC1	2.75%
CS(=O)(=O)c1cccc(S(=O)(=O)NC(=O)c2cscn2)c1	-4.27%
O=C(CCC(=O)N1CCOCC1c1ccccc1)c1cccs1 (stereo not drawn)	-2.2%
O=C(NS(=O)(=O)c1cccc(C(F)(F)F)c1)c1cnsn1	-5.69%
COc1cc2c(nn1)CCN(Cc1noc(-c3ccccc3)n1)C2	2.93%
COc1cc2c(nn1)CCN(Cc1nc(Cc3ccccc3)no1)C2	2.14%
CNC(=O)c1ccc(NC2CCN(CC(F)(F)F)C2=O)cc1Cl (stereo not drawn)	-7.41%
COc1c(CNCc2ccccc2CN2CCOCC2)c(C)nn1C	-7.68%
CC(=O)N(Cc1ncc(C)o1)C1CCN(CCOc2ccccc2)C1 (stereo not drawn)	17.4%
Cc1nc(CN(C)Cc2cc3c(cc2OC(F)F)OCO3)cs1	-7.91%
Cc1ccoc1CNCc1nnc2n1CC(C(F)(F)F)CC2 (stereo not drawn)	-12.1%
CCn1ccnc1CN1CCC(N(Cc2ncc(C)o2)C(C)=O)C1 (stereo not drawn)	4.91%
CC(=O)N(Cc1ncc(C)o1)C1CCN(Cc2ccc(F)c(F)c2)C1 (stereo not drawn)	-4.3%
CC(=O)N(Cc1ncc(C)o1)C1CCN(Cc2nnc(C3CC3)o2)C1 (stereo not drawn)	10%
O=C(NCc1cccnc1-n1cncn1)c1cncc(Br)c1	0.0598%
CCSc1cc(C(=O)NC2CCN(C(=O)c3ccncc3)CC2)ccn1	-0.0904%
CCCN1CCC(NC(=O)c2ccnc(SCC)c2)CC1	-0.521%
CCn1cc(NC(=O)C2CCN(Cc3nc(C)c(C)o3)CC2)cn1	-11.4%
CN(C)c1cc(C(=O)NCc2cccnc2-n2cncn2)ccn1	-16.1%
Cc1ccc(CNC(CN2CCN(C)CC2)c2ccccc2)cc1C (stereo not drawn)	35.8%
CCCNC(=O)CCNc1cncc(-n2nc(C)cc2C)n1	-4.63%
Fc1ccc(CNCc2nnc3n2CC(C(F)(F)F)CC3)c(F)c1 (stereo not drawn)	-7.11%

Structure (SMILES)	cytotoxicity at 70.5 h
Cc1cccc2nc(CNC(=O)N3CCC(N4CC=CC4)C3)cn12 (stereo not drawn)	-14.4%
CC(=O)N(Cc1ncc(C)o1)C1CCN(CCc2ccncc2)C1 (stereo not drawn)	7.37%
O=S(=O)(c1ccc(F)cc1F)N1CCCCC1c1nnc2n1CCCC2 (stereo not drawn)	-12.7%
Cc1cnn(CC2CCCCN2C(=O)CCCc2nc(C)no2)c1 (stereo not drawn)	-5.29%
Cc1ccc(C2CCCN2S(=O)(=O)N(C)Cc2cnccn2)o1 (stereo not drawn)	-3.89%
Cc1nc(CN2CCN(C(=O)CCC(=O)c3ccccc3)CC2)no1	12.6%
CCn1c(C)nnc1CN(C)C1CCN(Cc2c(C)noc2C)C1 (stereo not drawn)	-4.05%
CCn1c(C)nnc1CN(C)C1CCN(Cc2ccon2)C1 (stereo not drawn)	-1.86%
Cc1ccccc1OCCSc1nnc(CC2CCS(=O)(=O)C2)n1C (stereo not drawn)	-7.8%
O=C(NCCN1CCOCC1)c1cc(Cl)c2c(c1)OCCCO2	-5.1%
Cc1cccc(Nc2c(C#N)c(=O)n(C)c(=O)n2C)c1	-3.97%
COc1ccc(CNC(=O)C2=NN(c3ccc(C)cc3)C(=O)CN2)cc1	-5.36%
Cc1noc(CN2CCN(CCS(C)(=O)=O)CC2)n1	-2.73%
CC(C)N1CC(C(=O)NC(C)(C)CNC(=O)OC(C)(C)C)CC1=O (stereo not drawn)	-3.84%
CC1CCCCN1C(=O)Cn1cc(I)cn1 (stereo not drawn)	-1.82%
CC1CCN(C(=O)Cn2cc(I)cn2)CC1	0.739%
CC(C)Cc1ccc(C(=O)Cn2cnnc2[S+](C)[O-])cc1 (stereo not drawn)	-3.94%
C[S+]([O-])c1nncn1CC(=O)c1cccc(Br)c1 (stereo not drawn)	-3.69%
CC(NC(=O)Nc1ccc(OC2CCCC2)cc1)c1nc[nH]n1 (stereo not drawn)	12.8%
CC(NC(=O)Nc1cc(F)cc(F)c1)c1nc[nH]n1 (stereo not drawn)	-5.9%
CC(C)c1nn(C)c(N(C)C)c1CNCc1cccnc1	-1.06%
COc1ccc(NC(=O)NC(C)c2nc[nH]n2)cc1Cl (stereo not drawn)	-2.57%
Cc1noc(CN2CCN(CCO)CC2)n1	-3.7%
CCC(C)(NCC(=O)OC)c1nc(C)cs1 (stereo not drawn)	-1.12%

Structure (SMILES)	cytotoxicity at 70.5 h
CC(C)(C)OC(=O)NCC1CCCCN1Cc1cccc(C(N)=O)c1 (stereo not drawn)	1.21%
Cc1nn(C)c(N(C)C)c1CNC(C)c1cccnc1 (stereo not drawn)	-6.25%
COc1ccccc1C(CNC(=O)NCc1cc[nH]n1)N1CCCC1 (stereo not drawn)	12.7%
Cc1cnn(CC2CCCN2Cc2cc(=O)n3cc(C)ccc3n2)c1 (stereo not drawn)	-1.28%
CN(C)C(CNC(=O)NCc1cc[nH]n1)c1ccco1 (stereo not drawn)	0.0309%
Clc1cccc(CNC2CCN(CCc3ccncc3)CC2)c1	0.526%
CC(C)n1c(C2CCCN(CC(=O)NC3CC3)C2)nc2ccccc21 (stereo not drawn)	-1.26%
CC(NCc1ccc(-c2ccc(F)cc2)o1)c1nnc2n1CCC2 (stereo not drawn)	-9.83%
Cc1cc(NC(=O)c2nc(N3CCCC3)ncc2Cl)ccc1Br	-5.96%
NCC1(c2cccc(F)c2)CCOCC1	19.1%
CCN(CC)c1ccc(NC(=O)N2CCc3sccc3C2)cn1	-2.76%
O=C(Nc1ccc(N2CCOCC2)nc1)N1CCc2sccc2C1	46.1%
COc1cc(CN(C)C(=O)NCCNC(=O)C2CC2)ccc1SC	-16%
CCN(CCCNC(=O)c1ccc(C)[nH]c1=O)S(C)(=O)=O	-0.303%
O=C(c1cc2c([nH]c1=O)CCC2)N1CCCC1c1ccccc1 (stereo not drawn)	-4.54%
O=C(c1cc2c([nH]c1=O)CCC2)N1CCCC1c1ccccn1 (stereo not drawn)	-2.83%
COCCN(CCC#N)S(=O)(=O)c1ccc(F)cc1F	0.44%
CCc1nc(CCNC(=O)NC2CCN(C(C)C)C2)sc1C (stereo not drawn)	-3.64%
CSc1cc2c(cc1NC(=O)NCCn1ccnc1)OCCO2	-3%
O=C(Nc1cc(Cl)ccn1)c1nc(N2CCCC2)ncc1Cl	-2.78%
CCCn1nc2c(cc1=O)CN(Cc1c(C)noc1C)CC2	-6.66%
CCC(C)(CO)NC(=O)Nc1cc2c(cc1SC)OCCO2 (stereo not drawn)	-1.22%
CC(C(=O)Nc1ccnn1C(C)C)N1CCN(Cc2ccon2)CC1 (stereo not drawn)	1.23%
O=C(Nc1ccc(CC(=O)N2CCSCC2)cc1)NC1CC1	14.5%

Structure (SMILES)	cytotoxicity at 70.5 h
CN1CCC(N(C)C(=O)CSc2ccc(F)c(F)c2)C1=O (stereo not drawn)	-2.06%
CC(C)Nc1ncccc1C(=O)NCc1ccnn1C	6.47%
CC(C)Nc1ncccc1C(=O)NCc1cnc(N(C)C)n1C	-14.4%
CCN(Cc1cccc(-c2ccncc2)c1)S(N)(=O)=O	-2.79%
Cc1cc(NCC2(O)CCOCC2)c2ccccc2n1	-4.68%
CS(=O)(=O)NCCN1CCOC2(CCc3ccccc32)C1 (stereo not drawn)	-7.71%
OC1(CNc2cc(C(F)(F)F)nc3ccccc23)CCOCC1	-4.81%
CCOc1ccccc1C(CC(=O)Nc1ccccc1)NC(C)=O (stereo not drawn)	-6.59%
CCCN(C(=O)c1ocnc1C)C1CCCN(Cc2ccccc2)C1 (stereo not drawn)	-5.56%
CSc1ccc(NCc2csc(CS(C)(=O)=O)n2)cc1F	-1.97%
O=C(N1CCC(Oc2ccncc2)C1)C1(c2cccc(F)c2)CC1 (stereo not drawn)	-1.35%
CSc1ccc(NCc2csc(C)n2)cc1F	-0.888%
CC(C)c1ccc(CCC(=O)N(C)C2CCN(C)C2=O)cc1 (stereo not drawn)	-1.43%
c1ccc2c(c1)CCC21CN(CCc2ccncc2)CCO1 (stereo not drawn)	-4.57%
Cc1noc(CNc2cccc(C(=O)N3CCCC(O)C3)c2)n1 (stereo not drawn)	-6.36%
CCN(Cc1cccc(-c2ccncc2)c1)S(C)(=O)=O	-4.62%
Cc1n[nH]c(C2CN(C(=O)c3ccc(=O)n(C)c3)CCO2)n1 (stereo not drawn)	25.4%
CC(C)N(C)C(=O)C1CCN(Cc2cc3c(cc2O)CCC3)CC1	-5.17%
Cc1cccn2cc(CN3CCCC(c4ccn[nH]4)C3)nc12 (stereo not drawn)	0.654%
CN(Cc1ccsc1)C(=O)c1ccc(F)c(NS(C)(=O)=O)c1	-3.77%
CN(CC(F)(F)F)C(=O)c1ccc(F)c(NS(C)(=O)=O)c1	-1.16%
Cc1nn(C)c(N(C)C)c1CNCc1cccc(CN(C)C)c1	-3.97%
